Results from patent US20110195900A1, “PEPTIDIC PTH RECEPTOR AGONISTS” (FERRING B.V., priority 2008, published 2011).
Read-outs that look alike come from different tables or passages of the source. Non-standard residues stand in square brackets, D forms with d. Residues, ends and D or L forms follow the SMILES beside them. 1Nal = N[C@@H](Cc1cccc2ccccc12)C(=O)O; 2Nal = N[C@@H](Cc1ccc2ccccc2c1)C(=O)O; β3hI = CC[C@H](C)[C@H](N)CC(=O)O; β3hE = N[C@@H](CCC(=O)O)CC(=O)O; hSer = N[C@@H](CCO)C(=O)O; Nle = CCCC[C@H](N)C(=O)O; βAla = NCCC(=O)O

Target: T1, human PTH-1 receptor (Homo sapiens, UniProt Q03431)
T1 construct: expressed in transfected cells; host or cells: HEK-293
T1 sequence (Q03431 27-593): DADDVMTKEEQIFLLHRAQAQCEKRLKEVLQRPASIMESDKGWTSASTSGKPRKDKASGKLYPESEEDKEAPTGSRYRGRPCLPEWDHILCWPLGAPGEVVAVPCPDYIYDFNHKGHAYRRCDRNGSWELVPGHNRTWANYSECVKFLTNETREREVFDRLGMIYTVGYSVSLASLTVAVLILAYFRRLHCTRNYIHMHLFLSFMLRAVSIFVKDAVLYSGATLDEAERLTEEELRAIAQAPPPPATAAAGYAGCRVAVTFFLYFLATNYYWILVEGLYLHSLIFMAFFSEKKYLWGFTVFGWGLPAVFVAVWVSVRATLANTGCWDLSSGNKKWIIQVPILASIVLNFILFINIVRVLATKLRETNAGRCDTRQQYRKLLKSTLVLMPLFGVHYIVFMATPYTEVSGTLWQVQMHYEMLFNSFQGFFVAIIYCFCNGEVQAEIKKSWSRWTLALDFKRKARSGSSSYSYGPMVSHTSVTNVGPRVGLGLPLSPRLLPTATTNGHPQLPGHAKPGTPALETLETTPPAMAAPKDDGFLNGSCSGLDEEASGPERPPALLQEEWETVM
Assay: Reporter gene assay (CRE-luciferase) for agonist activity in transiently transfected HEK-293 cells
Type: cell-based
Settings: for hPTHR-2/hPTHR-1: ratio of EC50 values, selectivity for hPTH-1 receptor over hPTH-2 receptor
Description: Agonist activity of compounds on the human PTH-1 receptor was determined in a reporter gene assay by transiently transfecting HEK-293 cells with plasmids encoding human PTH-1 receptor under control of the SV40 promoter and a luciferase reporter gene under control of cAMP responsive elements (CRE). See Himmler et al, J. Recept. Res. 13 (1993) 79-94, for further guidance on this assay. Transfected cells were exposed to serial dilutions of compounds for 4-5 hours followed by lysis of cells, determination of luciferase activity, and determination of compound efficacies and EC50 values through non-linear regression.
PTH (1-34) was used as an internal control in each experiment and compounds were tested in at least three independent experiments. To determine selectivity, compounds were tested in luciferase-based transcriptional reporter gene assays expressing the human PTH-2 receptor.

| EC50 (Table 3, HEK-293 cells, CRE-luciferase, 4-5 hours exposure, read-out: hPTHR-1 EC50) | SMILES | EC50 | hPTHR-2/hPTHR-1 (Table 3) |
| --- | --- | --- | --- |
| – | CCCC[C@H](NC(=O)[C@H](CC(C)C)NC(=O)[C@H](CCC(N)=O)NC(=O)[C@@H](NC(=O)[C@H](CCC(=O)O)NC(=O)[C@H](CO)NC(=O)[C@@H](NC(=O)[C@@H](N)CO)C(C)C)[C@@H](C)CC)C(=O)N[C@@H](Cc1c[nH]cn1)C(=O)N[C@@H](CC(N)=O)C(=O)N[C@@H](CC(C)C)C(=O)NCC(=O)N[C@@H](CCCCN)C(=O)N[C@@H](Cc1c[nH]cn1)C(=O)N[C@@H](CC(C)C)C(=O)N[C@@H](CC(N)=O)C(=O)N[C@@H](CO)C(=O)N[C@H](CC(=O)N[C@@H](CCC(=O)O)C(=O)N[C@@H](CCCNC(=N)N)C(=O)N[C@H](C(=O)N[C@@H](CCC(=O)O)C(=O)N[C@@H](Cc1cccc2ccccc12)C(=O)N[C@@H](CC(C)C)C(=O)N[C@@H](CCCNC(=N)N)C(=O)N[C@@H](CCCCN)C(=O)N[C@@H](CC(C)C)C(=O)N[C@@H](CC(C)C)C(=O)N[C@@H](CCC(N)=O)C(=O)N[C@@H](CC(=O)O)C(=O)N[C@H](C(=O)O)C(C)C)C(C)C)[C@@H](C)CC [SEQ ID NO: 10, [Nle^8, β-hIle^18,1-Nal^23, Leu^27] hPTH (1-31)-OH] (H-SVSEIQL[Nle]HNLGKHLNS[β3hI]ERVE[1Nal]LRKLLQDV-OH) | 90 pM | 811 |
| 220 pM | CCCC[C@H](NC(=O)CCNC(=O)[C@H](CC(N)=O)NC(=O)[C@H](CC(C)C)NC(=O)[C@H](Cc1c[nH]cn1)NC(=O)[C@H](CCCCN)NC(=O)CNC(=O)[C@H](CC(C)C)NC(=O)[C@H](CC(N)=O)NC(=O)[C@H](Cc1c[nH]cn1)NC(=O)[C@H](CCCC)NC(=O)[C@H](CC(C)C)NC(=O)[C@H](CCC(N)=O)NC(=O)[C@@H](NC(=O)[C@H](CCC(=O)O)NC(=O)[C@H](CO)NC(=O)[C@@H](NC(=O)[C@H](C)N)C(C)C)[C@@H](C)CC)C(=O)N[C@@H](CCC(=O)O)C(=O)N[C@@H](CCCNC(=N)N)C(=O)N[C@H](C(=O)N[C@@H](CCC(=O)O)C(=O)N[C@@H](Cc1ccc2ccccc2c1)C(=O)N[C@@H](CC(C)C)C(=O)N[C@@H](CCCNC(=N)N)C(=O)N[C@@H](CCCCN)C(=O)N[C@@H](CCCCN)C(=O)N[C@@H](CC(C)C)C(=O)N[C@@H](CCC(N)=O)C(=O)N[C@@H](CC(=O)O)C(=O)N[C@H](C(=O)N[C@@H](Cc1c[nH]cn1)C(=O)N[C@@H](CC(N)=O)C(=O)N[C@@H](Cc1ccccc1)C(N)=O)C(C)C)C(C)C [SEQ ID NO: 12, [Ala^1, Nle^8,18, β-Ala^17,2-Nal^23] hPTH (1-34)-NH2] (H-AVSEIQL[Nle]HNLGKHLN[βAla][Nle]ERVE[2Nal]LRKKLQDVHNF-NH2) | – | 430 |
| – | CCCC[C@H](NC(=O)CCNC(=O)[C@H](CC(N)=O)NC(=O)[C@H](CC(C)C)NC(=O)[C@H](Cc1c[nH]cn1)NC(=O)[C@H](CCCCN)NC(=O)CNC(=O)[C@H](CC(C)C)NC(=O)[C@H](CC(N)=O)NC(=O)[C@H](Cc1c[nH]cn1)NC(=O)[C@H](CCCC)NC(=O)[C@H](CC(C)C)NC(=O)[C@H](CCC(N)=O)NC(=O)[C@@H](NC(=O)[C@H](CCC(=O)O)NC(=O)[C@H](CO)NC(=O)[C@@H](NC(=O)[C@H](C)N)C(C)C)[C@@H](C)CC)C(=O)N[C@@H](CCC(=O)O)C(=O)N[C@@H](CCCNC(=N)N)C(=O)N[C@H](C(=O)N[C@@H](CCC(=O)O)C(=O)N[C@@H](Cc1cccc2ccccc12)C(=O)N[C@@H](CC(C)C)C(=O)N[C@@H](CCCNC(=N)N)C(=O)N[C@@H](CCCCN)C(=O)N[C@@H](CC(C)C)C(=O)N[C@@H](CC(C)C)C(=O)N[C@@H](CCC(N)=O)C(=O)N[C@@H](CC(=O)O)C(=O)N[C@H](C(=O)N[C@@H](Cc1c[nH]cn1)C(=O)N[C@@H](CC(N)=O)C(=O)N[C@@H](Cc1ccccc1)C(N)=O)C(C)C)C(C)C [SEQ ID NO: 14, [Ala^1, Nle^8,18, β-Ala^17,1-Nal^23, Leu^27] hPTH (1-34)-NH2] (H-AVSEIQL[Nle]HNLGKHLN[βAla][Nle]ERVE[1Nal]LRKLLQDVHNF-NH2; N-terminus assumed) | – | 449 |
| – | CCCC[C@H](NC(=O)CCNC(=O)[C@H](CC(N)=O)NC(=O)[C@H](CC(C)C)NC(=O)[C@H](Cc1c[nH]cn1)NC(=O)[C@H](CCCCN)NC(=O)CNC(=O)[C@H](CC(C)C)NC(=O)[C@H](CC(N)=O)NC(=O)[C@H](Cc1c[nH]cn1)NC(=O)[C@H](CCCC)NC(=O)[C@H](CC(C)C)NC(=O)[C@H](CCC(N)=O)NC(=O)[C@@H](NC(=O)[C@H](CCC(=O)O)NC(=O)[C@H](CO)NC(=O)[C@@H](NC(=O)[C@@H](N)CO)C(C)C)[C@@H](C)CC)C(=O)N[C@@H](CCC(=O)O)C(=O)N[C@@H](CCCNC(=N)N)C(=O)N[C@H](C(=O)N[C@@H](CCC(=O)O)C(=O)N[C@@H](Cc1cccc2ccccc12)C(=O)N[C@@H](CC(C)C)C(=O)N[C@@H](CCCNC(=N)N)C(=O)N[C@@H](CCCCN)C(=O)N[C@@H](CC(C)C)C(=O)N[C@@H](CC(C)C)C(=O)N[C@@H](CCC(N)=O)C(=O)N[C@@H](CC(=O)O)C(=O)N[C@H](C(=O)N[C@@H](Cc1c[nH]cn1)C(=O)N[C@@H](CC(N)=O)C(=O)N[C@@H](Cc1ccccc1)C(N)=O)C(C)C)C(C)C [SEQ ID NO: 15, [Nle^8,18, β-Ala^17,1-Nal^23, Leu^27] hPTH (1-34)-NH2] (H-SVSEIQL[Nle]HNLGKHLN[βAla][Nle]ERVE[1Nal]LRKLLQDVHNF-NH2) | 120 pM | 389 |
| – | CCCC[C@H](NC(=O)[C@H](CC(C)C)NC(=O)[C@H](CCC(N)=O)NC(=O)[C@@H](NC(=O)[C@H](CCC(=O)O)NC(=O)[C@H](CO)NC(=O)[C@@H](NC(=O)[C@@H](N)CO)C(C)C)[C@@H](C)CC)C(=O)N[C@@H](Cc1c[nH]cn1)C(=O)N[C@@H](CC(N)=O)C(=O)N[C@@H](CC(C)C)C(=O)NCC(=O)N[C@@H](CCCCN)C(=O)N[C@@H](Cc1c[nH]cn1)C(=O)N[C@@H](CC(C)C)C(=O)N[C@@H](CC(N)=O)C(=O)NCCC(=O)N[C@@H](CCOC)C(=O)N[C@@H](CCC(=O)O)C(=O)N[C@@H](CCCNC(=N)N)C(=O)N[C@H](C(=O)N[C@@H](CCC(=O)O)C(=O)N[C@@H](Cc1cccc2ccccc12)C(=O)N[C@@H](CC(C)C)C(=O)N[C@@H](CCCNC(=N)N)C(=O)N[C@@H](CCCCN)C(=O)N[C@@H](CC(C)C)C(=O)N[C@@H](CC(C)C)C(=O)N[C@@H](CCC(N)=O)C(=O)N[C@@H](CC(=O)O)C(=O)N[C@H](C(=O)N[C@@H](Cc1c[nH]cn1)C(=O)N[C@@H](CC(N)=O)C(=O)N[C@@H](Cc1ccccc1)C(N)=O)C(C)C)C(C)C [SEQ ID NO: 16, [Nle^8, β-Ala^17, hSer(OMe)^18,1-Nal^23, Leu^27] hPTH (1-34)-NH2] (H-SVSEIQL[Nle]HNLGKHLN[βAla][hSer](Me)ERVE[1Nal]LRKLLQDVHNF-NH2) | 130 pM | 719 |
| – | CCCC[C@H](NC(=O)[C@H](CO)NC(=O)[C@H](CC(N)=O)NC(=O)[C@H](CC(C)C)NC(=O)[C@H](Cc1c[nH]cn1)NC(=O)[C@H](CCCCN)NC(=O)CNC(=O)[C@H](CC(C)C)NC(=O)[C@H](CC(N)=O)NC(=O)[C@H](Cc1c[nH]cn1)NC(=O)[C@H](CCCC)NC(=O)[C@H](CC(C)C)NC(=O)[C@H](CCC(N)=O)NC(=O)[C@@H](NC(=O)[C@H](CCC(=O)O)NC(=O)[C@H](CO)NC(=O)[C@@H](NC(=O)[C@@H](N)CO)C(C)C)[C@@H](C)CC)C(=O)N[C@@H](CCC(=O)O)CC(=O)N[C@@H](CCCNC(=N)N)C(=O)N[C@H](C(=O)N[C@@H](CCC(=O)O)C(=O)N[C@@H](Cc1cccc2ccccc12)C(=O)N[C@@H](CC(C)C)C(=O)N[C@@H](CCCNC(=N)N)C(=O)N[C@@H](CCCCN)C(=O)N[C@@H](CC(C)C)C(=O)N[C@@H](CC(C)C)C(=O)N[C@@H](CCC(N)=O)C(=O)N[C@@H](CC(=O)O)C(=O)N[C@H](C(=O)N[C@@H](Cc1c[nH]cn1)C(=O)N[C@@H](CC(N)=O)C(=O)N[C@@H](Cc1ccccc1)C(N)=O)C(C)C)C(C)C [SEQ ID NO: 20, [Nle^8,18, β-hGlu^19,1-Nal^23, Leu^27] hPTH (1-34)-NH2] (H-SVSEIQL[Nle]HNLGKHLNS[Nle][β3hE]RVE[1Nal]LRKLLQDVHNF-NH2; N-terminus assumed) | – | 91 |
